In the PolyMetriX glass transition set:
± gives the standard deviation of the reports.

Compound | glass transition temperature
*CCC1C(=O)N(c2ccc(N(C)C)cc2)C(=O)C1* (repeat unit) | 195.00 °C
*Oc1cccc(OC(=O)c2ccc(Oc3ccc(C(*)=O)cc3)cc2)c1 (repeat unit) | 159.00 °C
*Oc1ccc(SC(=O)Oc2ccc(C(C)(C)c3ccc(OC(=O)Sc4ccc(*)cc4)cc3)cc2)cc1 (repeat unit) | 145.00 °C
*CC(C)(C)C1C(=O)N(c2c(C)cccc2C)C(=O)C1* (repeat unit) | 237.00 °C
*c1cc(Br)c(-c2c(Br)cc(N3C(=O)c4ccc(-c5ccc6c(c5)C(=O)N(*)C6=O)cc4C3=O)cc2C(=O)OCCCCCCCCCC)c(C(=O)OCCCCCCCCCC)c1 (repeat unit) | 116.00 °C
*CCCCCCCCN1C(=O)c2ccc(C(=O)c3ccc4c(c3)C(=O)N(*)C4=O)cc2C1=O (repeat unit) | 113.00 °C
*c1nnc(-c2cc(CCCCCCCCCC)c(-c3sc(-c4nnc(-c5cc(OCCCCCCCC)c(*)cc5OCCCCCCCC)o4)cc3CCCCCCCCCC)s2)o1 (repeat unit) | 53.80 °C
*C(=O)Oc1ccc(C(C)(C)c2ccc(OC(=O)c3ccc4c(c3)C(=O)N(c3ccc(Oc5ccc(N6C(=O)c7ccc(*)cc7C6=O)cc5)cc3)C4=O)cc2)cc1 (repeat unit) | 200.00 °C
*CC(*)c1ccc(C(C)(C)C)cc1 (repeat unit) [Poly(p-t-butyl styrene)] | 129 ± 5.6 °C
*Nc1cc([N+](=O)[O-])c(NC(=O)CCCCCCC(*)=O)cc1/C=C/c1ccc(N(C)C)cc1 (repeat unit) | 180.00 °C
*Oc1cccc(NC(=O)c2cccc(C(=O)Nc3ccc(*)cc3)c2)c1 (repeat unit) | 240.00 °C
*CC(*)(F)C(=O)OCCC(F)(F)C(F)(F)C(F)(F)C(F)(F)C(F)(F)C(F)(F)C(F)(F)C(F)(F)C(F)(F)C(F)(F)F (repeat unit) | 53.00 °C
*/C(Cl)=C(/*)CCCC (repeat unit) | 190.00 °C
*Cc1ccc(COP(=O)(/N=N/c2ccc(-c3ccc(/N=N/P(=O)(O*)OC)cc3)cc2)OC)cc1 (repeat unit) | 48.00 °C
*c1ccc(C2(c3ccc(-c4cc(-c5ccccc5)c5cc(C6(c7ccc8nc(*)cc(-c9ccccc9)c8c7)c7ccccc7-c7ccccc76)ccc5n4)cc3)c3ccccc3-c3ccccc32)cc1 (repeat unit) | 390.00 °C
*COc1ccc(C(C)(C)c2ccc(Oc3ccc(*)n3-c3ccc(C#N)cc3)cc2)cc1 (repeat unit) | 73.13 °C
*c1ccc(-c2ccc(N3C(=O)c4ccc(-c5cccc6c5C(=O)N(*)C6=O)cc4C3=O)c(C)c2)cc1C (repeat unit) | 384.00 °C
*c1ccc(Oc2ccc(C(C)(C)c3ccc(Oc4ccc(N5C(=O)c6ccc(Oc7ccccc7Oc7ccc8c(c7)C(=O)N(*)C8=O)cc6C5=O)cc4C(F)(F)F)cc3)cc2)c(C(F)(F)F)c1 (repeat unit) | 192.00 °C
*Oc1ccc(C2(c3ccc(Oc4ccc(C(=O)Oc5c(C)cc(C(C)(C)c6cc(C)c(OC(=O)c7ccc(*)cc7)c(C)c6)cc5C)cc4)cc3)CCC(C(C)(C)C)CC2)cc1 (repeat unit) | 176.00 °C
*OS(=O)(=O)c1cccc(C(=O)Oc2ccc(C(C)(C)c3ccc(*)cc3)cc2)c1 (repeat unit) | 133.00 °C
*CC(F)(F)C(F)(F)C(F)(F)C(F)(F)COC(=O)NCC(F)(F)C(F)(F)C(F)(F)C(F)(F)CNC(=O)O* (repeat unit) | 20.00 °C

Compound | glass transition temperature
*CCC[Si](*)(C[Si](C)(C)c1ccccc1)C[Si](C)(C)c1ccccc1 (repeat unit) | -36.00 °C
*CCCCCCCCCCCCOc1ccc(/C=N/N=C/c2ccc(O*)cc2O)c(O)c1 (repeat unit) | 89.00 °C
*CCCOC(=O)Nc1cc(NC(=O)O*)ccc1C (repeat unit) | 6.00 °C
*CC(OO*)c1ccc(C(C)(C)C)cc1 (repeat unit) | 19.90 °C
*CC(*)(C)C(=O)OCCCCCCCCCCCCCCC(=O)NC1OC(COC(C)=O)C(OC2OC(COC(C)=O)C(OC(C)=O)C(OC(C)=O)C2OC(C)=O)C(OC(C)=O)C1OC(C)=O (repeat unit) | 95.20 °C
*CCCCCCNC(=O)C(CC)CC(CC)C(=O)N* (repeat unit) | 94.00 °C
*Oc1ccc(S(=O)(=O)c2ccc(Oc3ccc(C(C)(C)c4ccc(*)c(C)c4)cc3C)cc2)cc1 (repeat unit) | 180.00 °C
*c1cc(C(=O)NCCCCCCCCCCCC)cc(N2C(=O)c3ccc(-c4ccc5c(c4)C(=O)N(*)C5=O)cc3C2=O)c1 (repeat unit) | 243.10 °C
*CC(*)OC(C)=O (repeat unit) [poly(vinyl acetate)] | 40.92 ± 13 °C
*Oc1ccc(C(C)(c2ccccc2)c2ccc(OC(=O)c3cccc(C(*)=O)c3)cc2)cc1 (repeat unit) | 202.00 °C
*CC(*)C(=O)OCCOC (repeat unit) | -34.00 °C
*CCOC(=O)NCC1(C)CC(NC(=O)O*)CC(C)(C)C1 (repeat unit) | 84.00 °C
*c1nc(-c2ccccc2)nc(N(c2ccccc2)c2ncnc(N(*)c3ccccc3)n2)n1 (repeat unit) | 279.00 °C
*CCN(CCOC(=O)c1ccc(C(=O)O*)c(OCCC)c1)c1ccc(/N=N/c2ccc(-c3nc4cc([N+](=O)[O-])ccc4[nH]3)cc2)cc1 (repeat unit) | 152.00 °C
*c1ccc(Oc2c(F)c(F)c(C(=O)c3c(F)c(F)c(Oc4ccc(C5(*)OC(=O)c6ccccc65)cc4)c(F)c3F)c(F)c2F)cc1 (repeat unit) | 215.00 °C
*CC(*)c1cc(C(=O)Oc2ccc(OC)cc2)ccc1C(=O)Oc1ccc(OC)cc1 (repeat unit) | 115.00 °C
*c1ccc(C2(c3ccc(-c4cc(-c5ccccc5)c5cc(Oc6ccc7nc(*)cc(-c8ccccc8)c7c6)ccc5n4)cc3)c3ccccc3-c3ccccc32)cc1 (repeat unit) | 310.00 °C
*OC1CCC(OC(=O)CCCCCCCCC(*)=O)CC1 (repeat unit) | 66.00 °C
*c1ccc2c(c1)C(=O)N(c1ccc(C(=O)Nc3ccc(C(c4ccc(NC(=O)c5ccc(N6C(=O)c7ccc(C(*)(C(F)(F)F)C(F)(F)F)cc7C6=O)cc5)cc4)(C(F)(F)F)C(F)(F)F)cc3)cc1)C2=O (repeat unit) | 351.00 °C
*CCCCCCOc1ccc(-c2cc(-c3ccccc3)c(-c3ccc(NC(=O)c4ccc(C(=O)Nc5ccc(-c6c(-c7ccccc7)cc(-c7ccc(O*)cc7)cc6-c6ccccc6)cc5)cc4)cc3)c(-c3ccccc3)c2)cc1 (repeat unit) | 127.00 °C
*Oc1ccc2c(c1)C(C)(c1ccc(OC(=O)c3ccc(C(*)=O)cc3)cc1)CC2(C)C (repeat unit) | 252.50 °C

Compound | glass transition temperature
*c1ccc2c(c1)C(=O)N(c1cc(C(=O)Nc3c(C)cc(-c4cc(C)c(NC(=O)c5ccc(C)c(N6C(=O)c7ccc(C(*)(C(F)(F)F)C(F)(F)F)cc7C6=O)c5)c(C)c4)cc3C)ccc1C)C2=O (repeat unit) | 250.00 °C
*c1ccc(Oc2ccc(S(=O)(=O)c3ccc(Oc4ccc(-c5nc(-c6ccccn6)nnc5*)cc4)cc3)cc2)cc1 (repeat unit) | 265.00 °C
*/C=C/c1cc(OCCc2ccccc2)c(*)cc1OC (repeat unit) | 121.00 °C
*Oc1ccc(S(=O)(=O)c2ccc(Oc3ccc(C(C)(C)c4ccc(*)c(C(OC)(C(F)(F)F)C(F)(F)F)c4)cc3C(OC)(C(F)(F)F)C(F)(F)F)cc2)cc1 (repeat unit) | 163.00 °C
*c1ccc(Oc2c(C)cc(C(c3cccnc3)c3cc(C)c(Oc4ccc(N5C(=O)CC(Nc6ccc(NC7CC(=O)N(*)C7=O)cc6)C5=O)cc4)c(C)c3)cc2C)cc1 (repeat unit) | 229.00 °C
*CC(*)(C)C(=O)OCCCCCCN1CCN(c2ccc(/N=N/c3ccc(C#N)cc3)cc2)CC1 (repeat unit) | 77.00 °C
*CCC[Si](*)(C)c1ccc(N(C)C)cc1 (repeat unit) | 6.50 °C
*CCCCCCOC(=O)c1ccc(C(=O)O*)cc1 (repeat unit) | 13.00 °C
*C#Cc1cccc(C#C[SiH2]*)c1 (repeat unit) | 72.00 °C
*CC/C=C(/*)Cl (repeat unit) [Polychloroprene ] | -48 ± 18 °C
*CC(*)(C)C(=O)OCCCCCCCCCCCOc1ccc(C(=O)Oc2ccc(C#N)cc2)cc1 (repeat unit) | 10.00 °C
*Nc1ccc(NC(=O)c2cc(-c3ccc(C(=O)O)c(C(*)=O)c3)ccc2C(=O)O)cc1 (repeat unit) | 248.40 °C
*c1c(C)cc(Cc2cc(C)c(N3C(=O)c4ccc(Oc5c(C)cc(Cc6cc(C)c(Oc7ccc8c(c7)C(=O)N(*)C8=O)c(C)c6)cc5C)cc4C3=O)c(C)c2)cc1C (repeat unit) | 264.00 °C
*c1cc(-c2ccc(C(=C3C=C(C(C)(C)C)C(=O)C(C(C)(C)C)=C3)c3cc(C(C)(C)C)c(O)c(C(C)(C)C)c3)cc2)c(*)s1 (repeat unit) | -12.60 °C
*Oc1ccc(C2(c3ccc(OC(=O)OC4C(C)(C)C(OC(*)=O)C4(C)C)cc3)CC3CCC2C3)cc1 (repeat unit) | 184.00 °C
*Nc1ccc(C(=O)Nc2ccc(Cc3ccc(NC(=O)c4ccc(NC(=O)c5ccc([Si](C)(C)c6ccc(C(*)=O)cc6)cc5)cc4)cc3)cc2)cc1 (repeat unit) | 300.00 °C
*CC(*)OC(=O)C(C)(C)C(C)(C)CC (repeat unit) | 90.00 °C
*c1ccc(Oc2ccc(C(=O)c3cccc(C(=O)c4ccc(Oc5ccc(N6C(=O)c7ccc(Oc8ccc(Oc9ccc(Oc%10ccc%11c(c%10)C(=O)N(*)C%11=O)cc9)cc8)cc7C6=O)cc5)cc4)c3)cc2)cc1 (repeat unit) | 192.00 °C
*CC#CCOC(=O)NCCCCCCNC(=O)O* (repeat unit) | -45.00 °C
*CCCCCOC(=O)CCCCC(=O)O* (repeat unit) | -69.00 °C
*CCCCCOC(=O)OCCCCCN1C(=O)c2ccc(C(=O)c3ccc4c(c3)C(=O)N(*)C4=O)cc2C1=O (repeat unit) | 77.00 °C
